From PMC4774911, “Biochemical Screening of Five Protein Kinases from Plasmodium falciparum against 14,000 Cell-Active Compounds” (PLoS ONE, 2016)
Where “and” joins values, the source holds several entries; their conditions need not be identical. Equal entries are not always repeated.

Key:
Experiment in all cases: biochemical
Conditions in all cases: read-out: KDapp
[1] = target: T1, PRKD3 (Homo sapiens, UniProt O94806); set-up: endogenous in cells; host or cells: K562 cell extract; species or system K562 (extract); replicate k of n = 2 (each experiment ID is one independent experiment; two experiment IDs per compound)
T1 sequence (O94806 1-890): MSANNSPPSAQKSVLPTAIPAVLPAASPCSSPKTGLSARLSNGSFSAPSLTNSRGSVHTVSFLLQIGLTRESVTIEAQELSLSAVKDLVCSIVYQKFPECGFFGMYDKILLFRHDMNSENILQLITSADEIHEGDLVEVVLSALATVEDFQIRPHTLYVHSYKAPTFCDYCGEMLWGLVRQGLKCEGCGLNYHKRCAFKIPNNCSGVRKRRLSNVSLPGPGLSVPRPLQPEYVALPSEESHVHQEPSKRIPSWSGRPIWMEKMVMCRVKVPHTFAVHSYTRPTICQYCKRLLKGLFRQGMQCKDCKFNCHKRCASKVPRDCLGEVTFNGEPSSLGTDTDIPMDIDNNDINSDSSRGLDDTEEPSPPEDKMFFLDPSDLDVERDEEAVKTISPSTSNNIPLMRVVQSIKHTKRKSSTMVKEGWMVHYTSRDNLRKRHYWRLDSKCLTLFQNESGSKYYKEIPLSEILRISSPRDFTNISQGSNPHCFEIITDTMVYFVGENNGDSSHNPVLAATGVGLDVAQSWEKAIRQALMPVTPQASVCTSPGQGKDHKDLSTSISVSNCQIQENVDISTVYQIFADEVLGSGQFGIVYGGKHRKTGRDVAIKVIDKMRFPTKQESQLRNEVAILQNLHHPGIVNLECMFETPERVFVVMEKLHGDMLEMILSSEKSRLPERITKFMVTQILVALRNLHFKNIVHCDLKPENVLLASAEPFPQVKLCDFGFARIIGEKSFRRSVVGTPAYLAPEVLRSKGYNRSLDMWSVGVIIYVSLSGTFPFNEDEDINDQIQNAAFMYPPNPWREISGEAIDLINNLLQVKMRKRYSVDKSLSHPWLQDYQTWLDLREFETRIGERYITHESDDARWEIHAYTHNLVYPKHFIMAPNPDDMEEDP

[2] = target: GSK3B (Homo sapiens, UniProt P49841); set-up: endogenous in cells; host or cells: K562 cell extract; species or system K562 (extract); replicate k of n = 2 (each experiment ID is one independent experiment; two experiment IDs per compound)
[3] = target: CIT (Homo sapiens, UniProt O14578); set-up: endogenous in cells; host or cells: K562 cell extract; species or system K562 (extract); replicate k of n = 2 (each experiment ID is one independent experiment; two experiment IDs per compound)
[4] = target: T2, PRKD2 (Homo sapiens, UniProt Q9BZL6); set-up: endogenous in cells; host or cells: K562 cell extract; species or system K562 (extract); replicate k of n = 2 (each experiment ID is one independent experiment; two experiment IDs per compound)
T2 sequence (Q9BZL6 1-878): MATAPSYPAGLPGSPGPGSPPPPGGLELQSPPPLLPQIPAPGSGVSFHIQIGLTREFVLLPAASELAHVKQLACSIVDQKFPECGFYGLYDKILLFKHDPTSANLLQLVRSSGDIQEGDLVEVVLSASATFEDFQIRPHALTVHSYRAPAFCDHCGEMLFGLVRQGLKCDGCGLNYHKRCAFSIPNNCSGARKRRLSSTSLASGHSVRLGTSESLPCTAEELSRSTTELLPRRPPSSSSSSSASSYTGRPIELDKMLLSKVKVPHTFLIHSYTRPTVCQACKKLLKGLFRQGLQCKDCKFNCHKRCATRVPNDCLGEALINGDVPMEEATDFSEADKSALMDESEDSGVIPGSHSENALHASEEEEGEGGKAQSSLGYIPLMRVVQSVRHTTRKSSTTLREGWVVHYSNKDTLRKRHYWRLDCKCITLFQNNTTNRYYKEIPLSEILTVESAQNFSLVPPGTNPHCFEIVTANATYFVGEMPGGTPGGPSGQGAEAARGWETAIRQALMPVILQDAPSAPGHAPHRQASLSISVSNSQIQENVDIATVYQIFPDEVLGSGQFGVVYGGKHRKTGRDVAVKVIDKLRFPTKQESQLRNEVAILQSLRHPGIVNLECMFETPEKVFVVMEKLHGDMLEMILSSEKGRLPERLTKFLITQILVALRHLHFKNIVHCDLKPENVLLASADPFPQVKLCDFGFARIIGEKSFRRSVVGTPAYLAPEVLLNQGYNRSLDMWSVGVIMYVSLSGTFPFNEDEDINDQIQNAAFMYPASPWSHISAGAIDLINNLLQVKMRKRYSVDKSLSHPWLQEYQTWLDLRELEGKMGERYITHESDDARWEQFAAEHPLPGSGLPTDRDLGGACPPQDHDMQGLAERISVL

[5] = target: STK10 (Homo sapiens, UniProt O94804); set-up: endogenous in cells; host or cells: K562 cell extract; species or system K562 (extract); replicate k of n = 2 (each experiment ID is one independent experiment; two experiment IDs per compound)
[6] = target: PAK4 (Homo sapiens, UniProt O96013); set-up: endogenous in cells; host or cells: K562 cell extract; species or system K562 (extract); replicate k of n = 2 (each experiment ID is one independent experiment; two experiment IDs per compound)
[7] = target: CDC42BPG (Homo sapiens, UniProt Q6DT37); set-up: endogenous in cells; host or cells: K562 cell extract; species or system K562 (extract); replicate k of n = 2 (each experiment ID is one independent experiment; two experiment IDs per compound)
[8] = target: MAP4K5 (Homo sapiens, UniProt Q9Y4K4); set-up: species or system K562 (extract); replicate k of n = 2 (each experiment ID is one independent experiment; two experiment IDs per compound)
Sequence of MAP4K5 (Q9Y4K4 whole entry): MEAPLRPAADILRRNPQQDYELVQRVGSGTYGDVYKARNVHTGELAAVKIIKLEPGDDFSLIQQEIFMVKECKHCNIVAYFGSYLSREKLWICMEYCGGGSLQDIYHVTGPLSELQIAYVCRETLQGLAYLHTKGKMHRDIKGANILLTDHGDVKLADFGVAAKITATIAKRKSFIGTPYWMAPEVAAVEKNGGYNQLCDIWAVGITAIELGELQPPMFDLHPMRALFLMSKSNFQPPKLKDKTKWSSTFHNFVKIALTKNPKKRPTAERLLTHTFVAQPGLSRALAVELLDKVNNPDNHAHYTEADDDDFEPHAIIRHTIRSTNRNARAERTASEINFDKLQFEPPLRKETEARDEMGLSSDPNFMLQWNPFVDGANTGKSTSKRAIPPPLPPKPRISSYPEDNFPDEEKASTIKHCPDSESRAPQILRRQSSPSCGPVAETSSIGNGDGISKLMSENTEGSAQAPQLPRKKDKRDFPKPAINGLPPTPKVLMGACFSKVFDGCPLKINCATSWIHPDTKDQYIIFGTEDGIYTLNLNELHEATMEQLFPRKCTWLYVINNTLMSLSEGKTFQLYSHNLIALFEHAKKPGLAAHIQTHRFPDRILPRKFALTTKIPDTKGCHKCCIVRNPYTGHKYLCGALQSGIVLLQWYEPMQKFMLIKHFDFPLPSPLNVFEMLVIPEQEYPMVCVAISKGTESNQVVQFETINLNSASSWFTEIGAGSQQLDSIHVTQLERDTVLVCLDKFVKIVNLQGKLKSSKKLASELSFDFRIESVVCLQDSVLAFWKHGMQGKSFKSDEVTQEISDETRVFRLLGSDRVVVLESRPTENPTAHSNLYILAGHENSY

Sequence of PAK4 (O96013 whole entry): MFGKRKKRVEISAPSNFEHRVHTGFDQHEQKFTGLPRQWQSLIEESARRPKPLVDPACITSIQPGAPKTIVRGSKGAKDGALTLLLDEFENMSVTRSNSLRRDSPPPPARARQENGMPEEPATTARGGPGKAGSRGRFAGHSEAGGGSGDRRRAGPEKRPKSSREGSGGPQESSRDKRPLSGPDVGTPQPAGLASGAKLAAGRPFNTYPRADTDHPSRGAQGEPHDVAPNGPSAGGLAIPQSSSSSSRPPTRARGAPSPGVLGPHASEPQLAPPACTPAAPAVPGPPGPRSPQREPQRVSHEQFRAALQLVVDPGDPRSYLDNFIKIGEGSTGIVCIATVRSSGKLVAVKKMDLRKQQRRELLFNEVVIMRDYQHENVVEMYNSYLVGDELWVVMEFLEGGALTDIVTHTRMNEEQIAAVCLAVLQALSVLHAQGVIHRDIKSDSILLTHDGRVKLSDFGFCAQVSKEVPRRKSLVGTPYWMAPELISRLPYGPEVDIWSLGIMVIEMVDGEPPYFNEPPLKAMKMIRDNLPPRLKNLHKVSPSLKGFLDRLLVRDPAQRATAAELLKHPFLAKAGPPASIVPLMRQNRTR
Sequence of GSK3B (P49841 whole entry): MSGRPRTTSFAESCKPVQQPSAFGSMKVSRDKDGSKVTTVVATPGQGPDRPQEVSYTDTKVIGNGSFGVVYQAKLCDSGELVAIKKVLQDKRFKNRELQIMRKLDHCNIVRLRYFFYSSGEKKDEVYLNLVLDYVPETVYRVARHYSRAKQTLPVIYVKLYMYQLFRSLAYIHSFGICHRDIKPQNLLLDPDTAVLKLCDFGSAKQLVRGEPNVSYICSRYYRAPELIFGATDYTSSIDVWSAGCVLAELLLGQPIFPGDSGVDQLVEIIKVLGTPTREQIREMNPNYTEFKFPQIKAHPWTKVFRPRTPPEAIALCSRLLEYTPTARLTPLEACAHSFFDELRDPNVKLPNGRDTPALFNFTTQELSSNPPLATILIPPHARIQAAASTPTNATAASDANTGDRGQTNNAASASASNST
Sequence of STK10 (O94804 whole entry): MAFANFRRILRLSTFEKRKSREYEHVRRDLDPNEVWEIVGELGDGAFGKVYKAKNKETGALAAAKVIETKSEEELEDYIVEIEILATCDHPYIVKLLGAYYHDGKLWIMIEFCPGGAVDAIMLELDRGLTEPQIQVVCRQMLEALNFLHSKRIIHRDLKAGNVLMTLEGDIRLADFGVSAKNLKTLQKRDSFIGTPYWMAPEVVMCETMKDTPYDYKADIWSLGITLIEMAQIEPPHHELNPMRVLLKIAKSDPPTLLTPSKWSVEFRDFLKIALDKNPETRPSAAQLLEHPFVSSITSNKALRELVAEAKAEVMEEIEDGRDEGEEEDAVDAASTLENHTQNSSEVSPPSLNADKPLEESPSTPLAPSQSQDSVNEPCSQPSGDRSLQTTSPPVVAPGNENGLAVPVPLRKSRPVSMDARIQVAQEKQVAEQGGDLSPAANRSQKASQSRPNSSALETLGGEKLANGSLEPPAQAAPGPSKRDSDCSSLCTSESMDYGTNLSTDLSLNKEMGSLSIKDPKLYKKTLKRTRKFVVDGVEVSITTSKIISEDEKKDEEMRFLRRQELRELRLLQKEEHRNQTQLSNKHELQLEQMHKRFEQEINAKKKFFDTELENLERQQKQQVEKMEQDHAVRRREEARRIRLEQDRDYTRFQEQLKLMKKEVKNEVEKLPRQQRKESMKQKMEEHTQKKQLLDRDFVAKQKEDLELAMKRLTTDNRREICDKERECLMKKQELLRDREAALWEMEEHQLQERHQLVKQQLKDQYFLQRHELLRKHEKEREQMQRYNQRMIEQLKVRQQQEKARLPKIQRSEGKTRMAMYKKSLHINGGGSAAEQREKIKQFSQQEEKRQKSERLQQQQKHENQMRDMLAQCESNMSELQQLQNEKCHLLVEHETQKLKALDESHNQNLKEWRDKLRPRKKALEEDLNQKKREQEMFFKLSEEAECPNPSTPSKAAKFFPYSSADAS
Sequence of CDC42BPG (Q6DT37 whole entry): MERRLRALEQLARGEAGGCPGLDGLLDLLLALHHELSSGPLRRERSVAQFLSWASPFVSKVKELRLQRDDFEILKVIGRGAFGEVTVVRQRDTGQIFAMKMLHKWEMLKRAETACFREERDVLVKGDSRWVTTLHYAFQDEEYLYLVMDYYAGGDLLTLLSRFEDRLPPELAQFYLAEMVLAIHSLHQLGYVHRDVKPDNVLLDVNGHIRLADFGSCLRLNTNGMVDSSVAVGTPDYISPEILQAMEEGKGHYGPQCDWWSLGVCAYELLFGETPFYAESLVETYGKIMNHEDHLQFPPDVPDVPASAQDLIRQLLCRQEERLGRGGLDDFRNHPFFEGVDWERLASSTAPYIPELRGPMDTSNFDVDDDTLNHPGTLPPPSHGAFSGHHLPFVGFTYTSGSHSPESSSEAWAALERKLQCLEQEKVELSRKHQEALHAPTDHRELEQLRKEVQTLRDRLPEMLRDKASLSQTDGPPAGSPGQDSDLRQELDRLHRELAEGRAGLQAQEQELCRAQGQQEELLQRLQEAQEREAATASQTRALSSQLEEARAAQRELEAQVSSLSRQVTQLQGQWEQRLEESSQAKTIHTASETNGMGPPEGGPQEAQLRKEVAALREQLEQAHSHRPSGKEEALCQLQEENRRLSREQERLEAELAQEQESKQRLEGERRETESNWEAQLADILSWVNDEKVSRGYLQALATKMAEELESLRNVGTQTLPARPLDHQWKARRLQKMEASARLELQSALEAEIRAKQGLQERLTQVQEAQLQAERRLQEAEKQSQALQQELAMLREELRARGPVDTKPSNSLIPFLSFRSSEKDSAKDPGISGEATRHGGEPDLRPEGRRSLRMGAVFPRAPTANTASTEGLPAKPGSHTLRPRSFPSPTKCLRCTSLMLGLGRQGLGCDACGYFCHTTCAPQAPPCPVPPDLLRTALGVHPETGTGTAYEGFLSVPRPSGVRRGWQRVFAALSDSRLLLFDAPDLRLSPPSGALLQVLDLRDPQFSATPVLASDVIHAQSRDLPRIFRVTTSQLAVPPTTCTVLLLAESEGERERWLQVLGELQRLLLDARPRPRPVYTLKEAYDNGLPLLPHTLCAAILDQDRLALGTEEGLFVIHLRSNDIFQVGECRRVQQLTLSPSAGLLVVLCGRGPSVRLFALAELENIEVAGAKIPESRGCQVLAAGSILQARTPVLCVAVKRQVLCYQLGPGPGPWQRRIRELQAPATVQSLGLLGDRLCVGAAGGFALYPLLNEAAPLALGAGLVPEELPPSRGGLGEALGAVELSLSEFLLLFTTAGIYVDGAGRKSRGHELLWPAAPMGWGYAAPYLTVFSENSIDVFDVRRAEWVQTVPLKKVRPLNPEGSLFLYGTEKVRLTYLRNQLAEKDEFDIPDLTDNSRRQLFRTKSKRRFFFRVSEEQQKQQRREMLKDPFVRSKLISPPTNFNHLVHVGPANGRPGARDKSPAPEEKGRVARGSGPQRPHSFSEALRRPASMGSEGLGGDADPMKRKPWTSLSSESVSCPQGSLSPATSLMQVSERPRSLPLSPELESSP

Structure (SMILES) | Kd [1] | Kd [2] | Kd [3] | Kd [4] | Kd [5] | Kd [6] | Kd [7] [nM] | Kd [8]
CN1CCN(c2ccc(Nc3ncc(C#N)c(Nc4ccccc4C(N)=O)n3)cc2)CC1.Cl [TCMDC-134116] | 166 nM | 857 nM and 535 nM | 4860 nM and 4950 nM | 165 nM and 160 nM | 25.6 nM and 49.6 nM | 205 nM and 227 nM | 848 | 185 nM and 192 nM
Cl.NCC1(c2nc(-c3ccc(Cl)c(O)c3)c(-c3ccncc3)[nH]2)CCCCC1 [TCMDC-141154] | 3910 nM | 2750 nM | 137 nM and 239 nM | 2520 nM and 2080 nM | 30.4 nM | 4910 nM | 6790 | 3310 nM
CN(C)CC(O)COc1ccc(Nc2ncc([N+](=O)[O-])c(Nc3ccccc3O)n2)cc1.O=C(O)C(F)(F)F (stereo not drawn) [TCMDC-141399] | 4090 nM and 3410 nM | 3000 nM and 3930 nM | 3750 nM | 921 nM | 3360 nM | 4850 nM and 3670 nM | 8140 | 2850 nM
